Like-named read-outs stand apart in the source and are kept apart here. One block for each compound: values may come before it.
Experiments:
ROCK1 = ROCK1 (Homo sapiens, UniProt Q13464); assay: ROCK assay (LabChip peptide phosphorylation), ROCK1; format: biochemical; conditions: 5 μM ATP, 1.5 μM peptide substrate
neointimal formation = conditions: rats, model similar to balloon injury; cited from earlier work
[1] = tested on: three rat models of hypertension; conditions: cited from earlier work
[2] = tested on: IL-1 beta-induced coronary stenosis; conditions: porcine model, long term treatment; cited from earlier work

ROCK1, sequence (Q13464 whole entry, species assumed): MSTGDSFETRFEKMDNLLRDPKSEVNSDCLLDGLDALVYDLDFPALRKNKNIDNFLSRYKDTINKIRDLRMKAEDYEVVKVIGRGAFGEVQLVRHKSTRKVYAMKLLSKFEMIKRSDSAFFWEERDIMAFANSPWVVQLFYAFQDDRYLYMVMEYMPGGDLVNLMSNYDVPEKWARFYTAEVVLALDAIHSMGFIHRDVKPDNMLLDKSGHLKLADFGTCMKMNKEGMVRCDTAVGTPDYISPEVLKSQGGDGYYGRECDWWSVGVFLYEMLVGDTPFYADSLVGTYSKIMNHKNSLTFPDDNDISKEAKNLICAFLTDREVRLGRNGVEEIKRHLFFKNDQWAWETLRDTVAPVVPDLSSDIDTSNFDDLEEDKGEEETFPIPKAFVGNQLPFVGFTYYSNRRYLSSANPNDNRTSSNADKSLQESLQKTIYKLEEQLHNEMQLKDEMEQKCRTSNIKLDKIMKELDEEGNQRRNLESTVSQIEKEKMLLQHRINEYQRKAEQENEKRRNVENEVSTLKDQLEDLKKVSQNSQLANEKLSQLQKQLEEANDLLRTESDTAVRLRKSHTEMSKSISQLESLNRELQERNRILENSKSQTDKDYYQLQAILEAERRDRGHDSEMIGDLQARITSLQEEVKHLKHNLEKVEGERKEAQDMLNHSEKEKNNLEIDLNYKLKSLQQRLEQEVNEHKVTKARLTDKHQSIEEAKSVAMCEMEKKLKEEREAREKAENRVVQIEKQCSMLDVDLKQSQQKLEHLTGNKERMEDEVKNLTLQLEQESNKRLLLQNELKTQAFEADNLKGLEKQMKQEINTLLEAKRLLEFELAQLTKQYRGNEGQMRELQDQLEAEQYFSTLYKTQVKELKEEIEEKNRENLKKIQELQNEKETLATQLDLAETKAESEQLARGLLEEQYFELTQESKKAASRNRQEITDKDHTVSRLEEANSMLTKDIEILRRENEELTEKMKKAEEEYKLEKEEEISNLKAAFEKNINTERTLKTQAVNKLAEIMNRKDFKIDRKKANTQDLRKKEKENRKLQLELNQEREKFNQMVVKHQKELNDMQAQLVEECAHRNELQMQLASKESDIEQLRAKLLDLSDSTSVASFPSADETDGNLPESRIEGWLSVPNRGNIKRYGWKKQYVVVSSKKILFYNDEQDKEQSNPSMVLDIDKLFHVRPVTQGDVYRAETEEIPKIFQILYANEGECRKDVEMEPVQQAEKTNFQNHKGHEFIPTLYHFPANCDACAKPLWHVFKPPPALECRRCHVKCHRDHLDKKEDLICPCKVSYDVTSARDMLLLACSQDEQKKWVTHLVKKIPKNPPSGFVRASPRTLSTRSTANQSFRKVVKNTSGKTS

Compound: COc1cc(C(=O)NCc2cccc(O)c2)ccc1-c1cn[nH]c1 [Example 6, N-(3-hydroxybenzyl)-3-methoxy-4-(1H-pyrazol-4-yl)benzamide]
IC50 (ROCK1): 0.85 nM

Compound: COC(=O)c1cccc(CNC(=O)c2ccc(-c3cn[nH]c3)c(OC)c2)c1 [Example 8, methyl 3-((3-methoxy-4-(1H-pyrazol-4-yl)benzamido)methyl)benzo-ate]
IC50 (ROCK1): 2.63 nM

Compound: C[C@@H](N)[C@H]1CC[C@H](C(=O)Nc2ccncc2)CC1 [Example Y-27632, Y-27632]
neointimal formation (neointimal formation): inhibited neointimal formation
blood pressure ([1]; control rats): only a minor effect on blood pressure
blood pressure ([1]; spontaneously hypertensive rat, renal hypertensive rat and deoxycortisone acetate salt hypertensive rat models): significantly decrease blood pressure

Compound: O=S(=O)(c1cccc2cnccc12)N1CCCNCC1 [fasudil]
coronary constrictive remodeling [2]: promote a regression of coronary constrictive remodeling
coronary stenosis [2]: progressively reduce coronary stenosis

More lines, now with the values ahead:

IC50 (ROCK1): 26.5 nM
Compound: COc1cc(C(=O)NC(C)c2cc(F)cc(F)c2)ccc1-c1cn[nH]c1 (racemic) [Example 67, (+/−)-N-(1-(3,5-difluorophenyl)ethyl)-3-methoxy-4-(1H-pyrazol-4-yl)benzamide]

IC50 (ROCK1): 3.05 nM
Compound: CNC(=O)c1cccc(CNC(=O)c2ccc(-c3cn[nH]c3)c(OC)c2)c1 [Example 65, 3-methoxy-N-(3-(methylcarbamoyl)benzyl)-4-(1H-pyrazol-4-yl)benzamide]
